According to patent publication US11633392B2 (priority 2016, dated 2023):

Columns and labels:
[1] = biological target: T1, human opioid δ receptor (Homo sapiens, UniProt P41143); test: Opioid receptor function test (Lance Ultra cAMP Kit), δ receptor; format: cell-based
T1 construct: host or cells: CHO cells
Method: (§1) Opioid Receptor Function Test
(§2) The functional activities of the compounds provided by the present invention on the μ, δ, and κ opioid receptors were investigated.
(§3) The test was performed by using Lance Ultra cAMP Kit (PerkinElmer) according to a method predetermined for the kit. In the evaluation of the agonistic activity, CHO cells expressing each of the human opioid receptors (δ, μ, and κ, accession numbers and catalog numbers are mentioned below) and 10 μM of each test compound were reacted for 30 minutes in an assay buffer (1× HBSS, […], pH 7.4, […] (isobutylmethylxanthine), 7.5% BSA) in the presence of forskolin. Subsequently, the cAMP detection reagent included in the kit was added, and 1 hour afterward, time-resolved fluorescence measurement was performed by using the EnVision plate reader (PerkinElmer). The test compounds and the control drugs (δ: SNC80, μ: DAMGO, κ: U-69593) were evaluated in a concentration range of 10^−12 to 10^−5 M, a dose-response curve of each test compound was obtained from the fluorescence values at 665 nm, and EC50 value and the Emax value were calculated. The Emax value was calculated as a ratio of the maximum reaction of the test compound to the maximum reaction of each control drug, which is taken as 100%.
(§4) • δ: Catalog No. CT4607, Accession No. NM_000911.2 • μ: Catalog No. CT4605, Accession No. NM_000914 • κ: Catalog No. CT4606, Accession No. NM_000912 (ChanTest Corporation)

[2] = system: ICR male mice; test: Reserpine-induced Parkinson's disease model mouse; format: in vivo; conditions: reserpine-treated mice, 10 mg/kg s.c.
Method: Reserpine-Induced Parkinson's Disease Model Mouse
ICR male mice (5 weeks old, Japan SLC) were obtained, and used after an acclimation period (5 to 12 days).
PD model was prepared with reference to the report of Hille et al. (Exp. Neurol., 2001, 172:189). It was prepared by intraperitoneally administering reserpine (5 mg/kg) 18 to 24 hours before the start of the test. The test was performed by subcutaneously administering a test compound to each mouse on the day of the test, immediately putting the mouse into a cage for monitoring locomotor activity, and measuring the migration distance over 60 minutes.

[3] = system: SD male rats; test: Rat cerebral infarction-induced overactive bladder model (cystometry); format: in vivo; conditions: for Pressure at the time of urination / Single urination amount / Static pressure / Urination interval: cumulative, Mean ± S.E. (n = 5)
Method: Evaluation Using Rat Cerebral Infarction-Induced Overactive Bladder Model
A transient middle cerebral artery occlusion model was prepared by using 8 weeks old SD male rats under isoflurane inhalation anesthesia. On the next day, the cervix was slightly cut open again under the isoflurane inhalation anesthesia, and a catheter for administration was fixed in the jugular vein, and led to the back. A cystometry operation was also performed, and the other end of a cannula inserted into the bladder was led to the back, and connected to a cannula swivel.
On the day 4 after the cerebral ischemia operation, cystometry was performed under no anesthesia and with no restraint. Intravesical pressure was measured for the stable period, then a medium was intravenously administered, and the value of the pressure was measured over about 30 minutes as a value before test substance administration. Then, the test substance was cumulatively and intravenously administered from the lowest dose at intervals of about 30 minutes, and the value was measured for about 30 minutes after each administration. For the rats determined to show pollakiuria (urination interval was 10 minutes or shorter) in the measurement before the administration, static intravesical pressure, pressure at the time of urination, urination interval, and single urination amount were measured at each time point.

[4] = biological target: T2, human opioid μ receptor (Homo sapiens, UniProt P35372); test: Opioid receptor function test (Lance Ultra cAMP Kit), μ receptor; format: cell-based
T2 construct: host or cells: CHO cells
Method: as §1, §2, §3, §4

T1 sequence (P41143 whole entry): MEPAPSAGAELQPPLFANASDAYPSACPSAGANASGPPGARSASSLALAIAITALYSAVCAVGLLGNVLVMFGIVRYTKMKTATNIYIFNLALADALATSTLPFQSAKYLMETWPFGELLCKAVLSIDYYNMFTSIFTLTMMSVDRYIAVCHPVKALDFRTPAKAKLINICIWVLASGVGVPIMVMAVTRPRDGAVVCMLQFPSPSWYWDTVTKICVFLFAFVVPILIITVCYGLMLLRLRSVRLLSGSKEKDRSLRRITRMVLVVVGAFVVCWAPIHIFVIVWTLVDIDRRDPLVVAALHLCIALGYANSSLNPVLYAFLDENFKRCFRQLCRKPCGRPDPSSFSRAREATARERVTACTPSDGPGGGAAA
T2 sequence (P35372 whole entry): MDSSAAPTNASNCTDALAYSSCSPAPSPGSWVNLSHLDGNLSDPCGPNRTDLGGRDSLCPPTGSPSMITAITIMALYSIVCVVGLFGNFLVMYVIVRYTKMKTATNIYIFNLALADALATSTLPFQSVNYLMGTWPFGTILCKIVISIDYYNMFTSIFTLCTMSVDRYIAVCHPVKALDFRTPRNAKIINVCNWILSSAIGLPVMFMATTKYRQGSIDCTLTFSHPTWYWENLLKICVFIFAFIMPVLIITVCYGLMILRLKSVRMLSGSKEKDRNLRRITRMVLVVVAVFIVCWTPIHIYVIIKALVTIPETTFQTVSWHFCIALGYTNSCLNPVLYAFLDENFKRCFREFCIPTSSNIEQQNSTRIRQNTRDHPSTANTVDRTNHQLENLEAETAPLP

## O=C(c1cccc(=O)[nH]1)N1C[C@H]2C[C@@]34CC[C@@H]1[C@@H]2[C@@]31CCN(CC2CC2)[C@@H]4Cc2ccc(O)cc21 [Example 7, 6-((1S,3aR,5aS,6R,11bR,11cS)-14-(cyclopropylmethyl)-10-hydroxy-2,3,3a,4,5,6,7,11c-octahydro-1H-6,11b-(epiminoethano)-1,5a-methanonaphtho[1,2-e]indole-3-carbonyl)pyridin-2(1H)-one]
[1]; CHO cells expressing human δ receptor, cAMP, in the presence of forskolin
  EC50: < 3 nM
[1]; ratio to maximum reaction of control drug SNC80 taken as 100%
  Emax: 99%
[2]; 60 minutes
  exploratory behavior: significantly increased
[2]; not significant (P=0.16)
  standing up behavior: tendency of increase
[3]; 0.01 mg/kg intravenous
  Pressure at the time of urination: 42.9 ± 10.7 mmHg
  Single urination amount: 0.310 ± 0.068 g
  Static pressure: 9.5 ± 1.3 mmHg
  Urination interval: 450.7 ± 76.9 s
[3]; 0.1 mg/kg intravenous
  Pressure at the time of urination: 42.8 ± 9.7 mmHg
  Single urination amount: 0.403 ± 0.129 g
  Static pressure: 9.6 ± 1.1 mmHg
  Urination interval: 547.4 ± 122.5 s
[3]; 0.01 and 0.1 mg/kg intravenous
  effect on single urination amount (in words): dose-dependently increasing tendency
  effect on urination interval (in words): dose-dependently increasing tendency
[3]; all the doses
  effect on pressure at the time of urination (in words): did not affect
  effect on static intravesical pressure (in words): did not affect
[4]; CHO cells expressing human μ receptor, cAMP, in the presence of forskolin, read-out: μ receptor EC50 value
  EC50: > 1 nM
[4]; ratio to maximum reaction of control drug DAMGO taken as 100%
  Emax: 10%
